Results taken from the NIST ThermoML archive (doi:10.1016/j.jct.2013.10.010).
± gives the expanded uncertainty stated by the source.

Assays:
[1] = φn = volume fraction of the nth substance listed; conditions: 298.15 K, Wilhelmy Plate Method
[2] = 298.15 K, Wilhelmy Plate Method

Row | SMILES | surface tension liquid-gas ([1]; φ1 = 0.1) | surface tension liquid-gas ([1]; φ1 = 0.2) | surface tension liquid-gas ([1]; φ1 = 0.3) | surface tension liquid-gas [2] | surface tension liquid-gas ([1]; φ2 = 0)
1 | OCCO [1,2-ethanediol] + O | 68.3 ± 0.4 mN/m | 64.8 ± 0.4 mN/m | 61.5 ± 0.4 mN/m |  | 
2 | C1COCCO1 [1,4-dioxane] + O | 54 ± 0.4 mN/m | 52 ± 0.4 mN/m | 46.6 ± 0.4 mN/m |  | 
3 | O [water] |  |  |  | 71.8 ± 0.4 mN/m | 

Other lines, results leading:

Row | surface tension liquid-gas ([1]; φ1 = 0.1) | surface tension liquid-gas ([1]; φ1 = 0.2) | surface tension liquid-gas ([1]; φ1 = 0.3) | surface tension liquid-gas [2] | surface tension liquid-gas ([1]; φ2 = 0) | SMILES
4 |  |  |  |  | 71.8 ± 0.4 mN/m | O [water] + C1COCCO1
5 |  |  |  |  | 71.8 ± 0.4 mN/m | O [water] + OCCO
